Measurements reported in patent US20080009538A1, “Methods and compositions for the treatment of urinary incontinence” (priority 2005, published 2008).
Structures can show the parent of a compound that is named as a salt. Where two headings read alike, the source gives them in different places.

Experiments:
Adult cats = assay: Dilute acetic acid bladder model in anesthetized cats (cystometrogram); type: in vivo, cat; settings: i.v., during 0.5% acetic acid infusion
Protocol: Adult cats (male and female) were anesthetized with α-chloralose (50-75 mg/kg i.v.) A cannula was inserted into the trachea to maintain a clear airway. One catheter was inserted into the carotid artery to measure systemic blood pressure, and another was placed into the radial vein for injecting bicifadine hydrochloride. All doses of bicifadine hydrochloride were based on body weight.
Electromyography electrodes were placed in the periurethral striated muscle. A catheter was inserted through the dome of the bladder and was used to infuse either saline for the control or dilute (0.5%) acetic acid into the test cats. The catheter was also used to record bladder pressure during each voiding cystometrogram. After bladder capacity was established using the saline infusion, cysometrograms were taken after an infusion of dilute acetic acid and changes in bladder capacity were recorded. […] Fluid release during micturition was measured by collecting the fluid in a cylinder attached to a force transducer.
On reaching micturition threshold, acetic acid infusion of the bladder was continued, resulting in rhythmic micturition contractions throughout the infusion period. During this time of rhythmic bladder activity, either vehicle as the control or bicifadine hydrochloride was administered. Five minutes after each administration of bicifadine hydrochloride, the bladder was emptied and another cystometrogram was performed. This procedure was repeated with increasing doses of bicifadine hydrochloride.
Under control conditions, rapid increases in intravessicular pressure were recorded after infusion of 5.3±0.6 ml saline into an initially empty bladder. Bladder capacity was reached after infusion of approximately 10.5 ml of saline. When acetic acid was infused, bladder capacity was reduced by more than half. […] Normal time to contraction following instillation of saline into the bladder is approximately 1286 seconds.

5-HT2A receptor = molecular target: T1, 5-HT2A receptor (Homo sapiens, UniProt P28223); assay: 5-HT2A receptor [3H]LSD binding screen, recombinant receptors in CHO cells; settings: [3H]LSD 1.2 nM, recombinant human 5-HT2A in CHO cells, 37° C., 30 min, read-out: inhibition of radioligand binding
T1 construct: expressed in transfected cells; host or cells: CHO cells

α2 adrenergic receptor = α2 adrenergic receptor [3H]RX 821002 binding, rat cerebral cortex preparation
Protocol: This assay was conducted by incubating the rat cortex preparation with a 0.5 nM concentration of [^3H]RX 821002 for 30 min at 22° C. in the presence of either 0.1, 0.3, 1, 3, or 10 μM concentrations bicifadine HCl. Unlabelled (−)epinephrine (100 μM) was used to determine nonspecific binding. The assay was terminated by vacuum filtration, and the amount of radiolabeled receptor retained by the filter measured by scintillation counting. […] Recombinant human 5-HT2A receptors expressed in CHO cells were incubated with bicifadine HCl (0.1, 1 or 10 μM) and [^3H]LSD (1.2 nM) at 37° C. for 30 min (Bonhaus 1995). Serotonin (10 μM) was used to determine nonspecific binding.
(§2) Ki=inhibitory constant defined as IC50/L+KD; IC50=concentration of bicifadine HCl that inhibits 50% of the maximal response; L=concentration of radioligand added; KD, dissociation constant of the radioligand at equilibrium.

[1] = molecular target: T2, serotonin transporter protein (Homo sapiens, UniProt P31645); assay: [3H]serotonin uptake in HEK 293 cells expressing the transporter; type: cell-based; settings: recombinant human serotonin transporter, 20 nM [3H]serotonin, read-out: inhibition of [3H]Serotonin uptake (IC50)
T2 construct: expressed in transfected cells; host or cells: HEK 293 cells
Protocol: (§1) The effects bicifadine on [^3H]norepinephrine and [^3H]serotonin uptake were measured in HEK 293 cells expressing the recombinant human forms of the norepinephrine and serotonin transporter proteins, respectively using a modification of the techniques described by Eschleman, et al., (1999). Cells were grown on 150-mm-diameter tissue culture dishes until confluent. Medium was removed from the plates and the cells were washed twice with Ca^2+, Mg^2+-free PBS. Fresh Ca^2+, Mg^2+-free PBS (2.5 ml) was then added to each plate and the plates were placed in a 25° C. water bath for 5 min. The cells were then gently scraped from the plates, and cell clusters were separated by trituration with a pipette for 5 to 10 aspirations and ejections. Aliquots (50 μl) of the suspended cells were then added to assay tubes (in triplicate) containing various concentrations of bicifadine and Krebs-HEPES assay buffer in a final assay volume of 0.5 ml. Following a 10-min pre-incubation in a 25° C. water bath, [^3H]norepinephrine or serotonin (20 nM final concentration) was added, and the assay was incubated for 10 min. The reaction was terminated by filtration through Wallac filtermat A filters presoaked in 0.05% polyethylenimine, using a Tomtec cell harvester. Scintillation fluid was then added to each filtered spot, and radioactivity remaining on the filters was determined by scintillation counting. […]

Female rats [2] = assay: Neurogenic overactive bladder in spinal cord transected rats; type: in vivo, rat; settings: versus no drug or vehicle
Protocol: The spinal cord is transected and the intervening space filled with Gelfoam. The overlying muscle layers and skin are sequentially closed with suture, and the animals are treated with antibiotic (100 mg/kg ampicillin s.c.) Residual urine is expressed prior to returning the animals to their cages, and thereafter 3 times daily until terminal experimentation four weeks later. On the day of the experiment, the animals are anesthetized with isofluorane (4%) and a jugular catheter is inserted for access to the systemic circulation and tunneled subcutaneously to exit through the midscapular region. Via a midline abdominal incision, a catheter with a fire-flared tip is inserted into the dome of the bladder through a small cystotomy and secured by ligation for bladder filling and pressure recording. Electrodes are inserted percutaneously into the external urethral sphincter for electromyography readings. […]
Following a 60-90 minute control period of normal saline infusion (0.100-0.150 ml/min) to collect baseline continuous open cystometric data, the pump is turned off, the bladder is emptied, the pump turned back on, and bladder capacity is estimated by a filling cystometrogram. […] Following the third administration of vehicle control, bladder capacity is again measured through a cystometrogram. […] Bladder capacity is measured as described above at 20 minutes following each subsequent drug treatment.

Adult female guinea pigs = assay: Urethral function in guinea pigs (external urethral sphincter EMG); type: in vivo, guinea pig; settings: intravenous, normal bladder filling, versus no drug or vehicle
Text: Yet another animal model for evaluating efficacy of bicifadine as an anti-incontinence drug is a widely accepted guinea pig model, also predictive of anti-incontinence drug activity in humans. Adult female guinea pigs, weighing 620-707 g, are initially anesthetized with halothane and maintained with urethane. A cannula is inserted into the trachea, a jugular vein and a carotid artery for respiratory ventilation, injection of the test compound and monitoring of the blood pressure, respectively. A midline laporatomy is performed to expose the urinary bladder and a cystometry tube is inserted through a small incision in the dome of the bladder. The abdominal wound is closed tightly around the externalized cystometry tube, which is connected to an infusion pump and pressure transducer, for filling the bladder and recording intravesical pressure. Electromyographic electrodes are inserted into the striated muscles of the external urethral sphincter.
The bladder is filled at a rate of 150 μl/min^−1 with saline until initiation of a micturition reflex. […]
The bladder is then filed to 75% of the threshold volume with saline and weights are positioned on the ventral surface of the abdomen of the animal just rostral to the position of the bladder. […] Electromyographic activity and intravesical pressure are recorded while weights are applied to the abdomen. […]

α1 adrenergic receptor = α1 adrenergic receptor [3H]prazosin binding, rat cerebral cortex preparation; settings: [3H]prazosin 0.25 nM, 60 min at 22° C., read-out: Inhibition of radioligand binding, affinity (Ki)
Protocol: At the end of 60 min, the assay was terminated by vacuum filtration and the amount of radioactivity deposited on the filter measured by scintillation counting.
as §2

Female rats [3] = assay: Dilute acetic acid model in rats (filling cystometry); type: in vivo, rat; settings: intraduodenal, 0.25% acetic acid continuous irritation
Text: Additional animal models for evaluating efficacy of bicifadine as an anti-incontinence drug include a widely accepted rat model predictive of anti-incontinence drug activity in humans. Female rats (250-275 g BW, n=8) are anesthetized with urethane (1.2 g/kg) and a saline-filled catheter is inserted into the proximal duodenum for intraduodenal drug administration. A flared-tipped catheter is inserted into the bladder dome, via a midline lower abdominal incision, for bladder filling and pressure recording, and secured by ligation. Electromyography elctrodes are inserted into the external urethral sphincter percutaneously.
In the control, saline is continuously infused at a rate of about 0.055 ml/min via the bladder filling catheter for about 60 minutes to obtain a baseline of lower urinary tract activity. […] Bladder capacity (ml) is calculated as the flow rate of the bladder filling solution […] multiplied by the elapsed time between commencement of bladder filling and occurrence of bladder contraction (min).
Following the control period, a 0.25% acetic acid solution in saline is infused into the bladder to induce bladder irritation. […] Following injection of the third vehicle control, bladder capacity is again measured using acetic acid to fill the bladder. […]

[4] = Blood pressure in human subjects; type: in vivo
[5] = molecular target: T3, norepinephrine transporter protein (Homo sapiens, UniProt P23975); assay: [3H]norepinephrine uptake in HEK 293 cells expressing the transporter; type: cell-based; settings: recombinant human norepinephrine transporter, 20 nM [3H]norepinephrine, read-out: inhibition of [3H]Norepinephrine uptake (IC50)
T3 construct: expressed in transfected cells; host or cells: HEK 293 cells
Protocol: as §1

T3 sequence (P23975 whole entry): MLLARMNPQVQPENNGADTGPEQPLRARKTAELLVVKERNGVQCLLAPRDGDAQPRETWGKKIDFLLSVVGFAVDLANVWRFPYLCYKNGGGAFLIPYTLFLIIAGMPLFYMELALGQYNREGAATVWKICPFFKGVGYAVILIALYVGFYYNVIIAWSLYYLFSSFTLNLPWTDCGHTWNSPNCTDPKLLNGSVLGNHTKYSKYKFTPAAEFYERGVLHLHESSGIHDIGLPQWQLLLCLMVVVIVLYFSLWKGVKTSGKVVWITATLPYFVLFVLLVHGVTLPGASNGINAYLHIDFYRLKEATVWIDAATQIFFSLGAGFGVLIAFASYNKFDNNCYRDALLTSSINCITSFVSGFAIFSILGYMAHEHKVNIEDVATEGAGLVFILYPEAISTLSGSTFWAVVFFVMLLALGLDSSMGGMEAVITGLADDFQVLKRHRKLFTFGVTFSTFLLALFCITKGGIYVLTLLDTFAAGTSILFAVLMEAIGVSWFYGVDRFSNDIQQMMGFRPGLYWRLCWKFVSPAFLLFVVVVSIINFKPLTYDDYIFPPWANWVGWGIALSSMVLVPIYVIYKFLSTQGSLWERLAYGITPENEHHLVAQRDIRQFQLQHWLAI
T1 sequence (P28223 whole entry): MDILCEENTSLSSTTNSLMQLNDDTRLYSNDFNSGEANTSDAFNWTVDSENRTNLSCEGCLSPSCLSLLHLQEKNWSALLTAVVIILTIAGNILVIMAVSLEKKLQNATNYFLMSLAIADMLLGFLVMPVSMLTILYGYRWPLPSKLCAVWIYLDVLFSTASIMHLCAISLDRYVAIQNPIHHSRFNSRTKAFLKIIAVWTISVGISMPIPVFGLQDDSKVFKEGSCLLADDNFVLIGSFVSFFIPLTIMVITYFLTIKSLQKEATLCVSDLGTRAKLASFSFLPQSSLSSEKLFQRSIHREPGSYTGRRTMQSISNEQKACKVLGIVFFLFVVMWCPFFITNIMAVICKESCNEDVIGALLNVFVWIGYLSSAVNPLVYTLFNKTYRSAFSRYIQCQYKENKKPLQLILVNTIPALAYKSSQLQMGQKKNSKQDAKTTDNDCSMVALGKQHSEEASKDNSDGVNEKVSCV
T2 sequence (P31645 whole entry): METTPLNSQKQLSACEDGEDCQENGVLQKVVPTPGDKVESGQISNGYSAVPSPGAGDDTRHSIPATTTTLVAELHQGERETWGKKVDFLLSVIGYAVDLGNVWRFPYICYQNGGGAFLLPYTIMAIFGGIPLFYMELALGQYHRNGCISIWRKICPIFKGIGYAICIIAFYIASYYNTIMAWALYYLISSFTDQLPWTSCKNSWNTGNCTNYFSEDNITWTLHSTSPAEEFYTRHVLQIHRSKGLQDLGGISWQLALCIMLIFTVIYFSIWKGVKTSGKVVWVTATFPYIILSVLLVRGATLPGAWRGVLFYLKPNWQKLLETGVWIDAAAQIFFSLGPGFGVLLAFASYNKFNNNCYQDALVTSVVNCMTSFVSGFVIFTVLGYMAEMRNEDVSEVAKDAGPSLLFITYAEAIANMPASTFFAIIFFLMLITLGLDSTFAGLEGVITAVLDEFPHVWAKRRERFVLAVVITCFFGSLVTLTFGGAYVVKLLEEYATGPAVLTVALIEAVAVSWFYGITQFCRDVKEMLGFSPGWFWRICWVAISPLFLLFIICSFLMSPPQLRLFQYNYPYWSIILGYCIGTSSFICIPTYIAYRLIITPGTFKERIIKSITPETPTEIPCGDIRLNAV

| inhibition at 10 µM (5-HT2A receptor) [%] | Ki (α2 adrenergic receptor; read-out: Inhibition of radioligand binding, affinity (Ki), [3H]RX 821002 0.5 nM, 30 min at 22° C., hydrochloride) [nM] | Ki (α2 adrenergic receptor; read-out: Inhibition of radioligand binding, affinity (Ki), [3H]RX 821002 0.5 nM, 30 min at 22° C., listed as bicifadine, hydrochloride) [nM] | IC50 [1] [nM] | Ki (α1 adrenergic receptor) [nM] | IC50 [5] [nM] | SMILES | bladder activity (Adult cats) | bladder capacity (Adult cats) | time to contraction (latency to bladder contraction) (Adult cats) | bladder capacity (Female rats [2]) | electromyographic activity of external urethral sphincter (Adult female guinea pigs) | bladder capacity (Female rats [3]) | alterations in blood pressure [4] |
| --- | --- | --- | --- | --- | --- | --- | --- | --- | --- | --- | --- | --- | --- |
|  |  |  |  |  |  | Cc1ccc(C23CNCC2C3)cc1.Cl (single isomer, unassigned; (+)) [(+)-bicifadine HCl, (+)-1-(p-Tolyl)-3-azabicyclo[3.1.0]hexane hydrochloride] | pronounced inhibition of bladder activity | increased bladder capacity to near control conditions | increased the time to contraction |  |  |  |  |
| 82 | 610 | 600 | 117 | 1000 | 54.7 | Cc1ccc([C@]23CNC[C@H]2C3)cc1 (racemic) [Bicifadine HCl, (±)-1-(4-methylphenyl)-3-azabicyclo[3.1.0]hexane hydrochloride] | pronounced inhibition of bladder activity | increased bladder capacity to near control conditions | increased the time to contraction | increase in bladder capacity | increase in electromyographic activity | increase in bladder capacity | did not cause significant alterations in blood pressure |
